Our source for the microbiological titre values is patent publication US8436154B2, “Crystallizing method of erythromycin” (Sunshine Lake Pharma Co., Ltd., priority 2008, dated 2013).

One test is described as follows: microbiological titre of erythromycin crystals. In kind it is cell-based. The following applies: dried erythromycin crystals recrystallized from dichloromethane-containing solvent.
erythromycin [Example 5] returned a microbiological titre of 943 μ/mg. On the same count and under the same terms, the value for erythromycin [Example 3] was 941 μ/mg; that for erythromycin [Example 1] was 948 μ/mg. Same read-out and setting: the value for erythromycin [Example 2] was 955 μ/mg. As to erythromycin [Example 4], the microbiological titre came to 946 μ/mg.

Experiment in another test: not given
Conditions: erythromycin crystals of CN1513864A, recrystallized from acetone and water; cited from earlier work.
Consider erythromycin [erythromycin crystals], for which the microbiological titre entry is recorded as “less than 930 μ/mg”.
